Patent publication US20170000129A1, “METHOD FOR TREATING MINERAL SLURRIES WITH A BIOCIDE” (priority 2015, published 2017)

Tests used:
[1] = tested on: bacteria from a contaminated kaolin product; experiment: Kaolin slurry preservation test, challenge: on day 20 samples inoculated with ~10^5 cfu/ml bacteria from a contaminated kaolin product; format: cell-based; conditions: 400 ppm; Table 2
Protocol: (§1) In the comparative testing, dry kaolin was mixed with water to achieve a 65% solid slurry material. This material contained no biocide. The slurry was then split into 200 gram aliquots and dosed with different biocides at different concentration as shown in Tables 1-3. All samples were kept at 50° C. until the end of the testing, which was up to 28 days.
(§2) The protocol for the testing of each sample is as follows: • 1) dosed with a recorded level of biocide; • 2) mixed for 24 hours contact time and plated using standard method agar for bacterial growth; • 3) remixed daily for 1 hour and retested for bacterial growth at Day 3; • 4) remixed daily for 1 hour and retested for bacterial growth at Day 7; • 5) remixed daily for 1 hour and retested for bacterial growth at Day 14; • 6) on day 20, samples were split into two containers: one container was inoculated (or challenged) with ˜10^5 cfu/ml bacteria, the other was left “as treated”, the challenge material was obtained from a contaminated kaolin product and is assumed to be representative of the types of bacteria that are seen in the kaolin industry, and the two sets of samples were prepared for Day 21 testing; • 7) both sets were remixed daily for 1 hour and retested for bacterial growth at Day 21; and • 8) both sets remixed daily for 1 hour and retested for bacterial growth at Day 28.

[2] = tested on: bacterial growth in kaolin slurry; experiment: Kaolin slurry preservation test: biocide-dosed 65% solids slurry plated on standard method agar, samples as treated; format: cell-based, bacteria
Protocol: as §1
A number of different and known biocides were used in the study and they include glutaraldehyde (glute), 1,2 benzithiazolin-3-one (BIT), tetrahydro-3-5-methyl-2H-1,3,5-thiadizine-2-thione (thione), isothiazoline (ISO), bronopol (BNPD) or orthophenyl phenate (OPP). For shorthand purposes, the study refers to the tradename of the biocide, which is found in the above listing of the biocides. Metam sodium is designated as SMDC and MDTCMA is used without change
as §2
Different contact times were used to see how quickly the bacterial population was effected by the biocide.

Which “Log Red, 21 day Challenge” value [1] does the source give for `O=CCCCC=O` [50% Glute, glutaraldehyde, reference compound] here?
The value was 6.

What about the “Log Red, 28 day Challenge” value [1] of the same compound?
The value was 5.

What about the “cfu/mL, 21 day Challenge” value [1] of the same compound?
Its value is 100 cfu/mL.

And the “cfu/mL, 28 day Challenge” value [1]?
Its value is 100 cfu/mL.

And the “Log Red, contact time 1 day” value ([2]; 400 ppm, Table 2)?
Its value is 5.

And the “Log Red, contact time 3 day” value ([2]; 400 ppm, Table 2)?
Its value is 5.

What about the “Log Red, contact time 7 day” value ([2]; 400 ppm, Table 2) of the same compound?
The value was 6.

And the “Log Red, contact time 14 day” value ([2]; 400 ppm, Table 2)?
Its value is 6.

What about the “Log Red, contact time 21 day” value ([2]; 400 ppm, Table 2) of the same compound?
The value was 6.

And the “Log Red, contact time 28 day” value ([2]; 400 ppm, Table 2)?
Its value is 5.

What about the “cfu/mL, contact time 1 day” value ([2]; 400 ppm, Table 2) of the same compound?
Its value is 100 cfu/mL.

And the “cfu/mL, contact time 3 day” value ([2]; 400 ppm, Table 2)?
Its value is 100 cfu/mL.

And the “cfu/mL, contact time 7 day” value ([2]; 400 ppm, Table 2)?
Its value is 100 cfu/mL.

What about the “cfu/mL, contact time 14 day” value ([2]; 400 ppm, Table 2) of the same compound?
Its value is 100 cfu/mL.

And the “cfu/mL, contact time 21 day” value ([2]; 400 ppm, Table 2)?
Its value is 100 cfu/mL.

What about the “cfu/mL, contact time 28 day” value ([2]; 400 ppm, Table 2) of the same compound?
The value was 100 cfu/mL.

And the “biocide efficacy compared with known biocides” value ([2]; Table 2, up to 28 days)?
The value was “best performer”.
